Test results reported in patent publication US20240228488A1 (TAKEDA PHARMACEUTICAL COMPANY LIMITED, priority 2021, published 2024).

Key:
[1] = target: human activated kallikrein enzyme (Homo sapiens, UniProt P03952); assay: Plasma kallikrein inhibition, fluorogenic PFR-AMC substrate, 500 pM activated kallikrein format; assay type: biochemical; conditions: 500 pM activated kallikrein, 300 uM PFR-AMC, 30 min preincubation, 10 min reaction; read-out: Primary Dose Response Assay: Average EC50
Summary of the method: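 500 pM enz + cpd, 30 min RT preinc; start w/ PFR-AMC 300 uM; 10 min RT; Ex380/Em460. Buffer: Tris 20 mM pH 7.5, EDTA 1 mM, NaCl 150 mM, PEG-400 0.1%, Triton 0.1%. EC50.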

plasma kallikrein = target: T1, plasma kallikrein (Homo sapiens, UniProt P03952); assay: Neat human plasma assay, FXIIa contact pathway-activated, PFR-AMC substrate; assay type: biochemical; conditions: citrated human plasma 78% final, 10 nM human FXIIa, 100 μM PFR-AMC; read-out: Human Plasma Assay: IC90
T1 construct: from tissue
T1 sequence (P03952 391-638 limits assumed): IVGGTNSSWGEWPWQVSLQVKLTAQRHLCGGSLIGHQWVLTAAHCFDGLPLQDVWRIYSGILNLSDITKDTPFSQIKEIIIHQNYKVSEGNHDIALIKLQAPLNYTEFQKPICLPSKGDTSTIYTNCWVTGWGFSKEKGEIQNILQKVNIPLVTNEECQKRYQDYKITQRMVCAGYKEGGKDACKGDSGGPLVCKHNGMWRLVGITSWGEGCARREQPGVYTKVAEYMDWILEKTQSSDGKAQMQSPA
T1 sequence (P03952 20-390 partner limits assumed): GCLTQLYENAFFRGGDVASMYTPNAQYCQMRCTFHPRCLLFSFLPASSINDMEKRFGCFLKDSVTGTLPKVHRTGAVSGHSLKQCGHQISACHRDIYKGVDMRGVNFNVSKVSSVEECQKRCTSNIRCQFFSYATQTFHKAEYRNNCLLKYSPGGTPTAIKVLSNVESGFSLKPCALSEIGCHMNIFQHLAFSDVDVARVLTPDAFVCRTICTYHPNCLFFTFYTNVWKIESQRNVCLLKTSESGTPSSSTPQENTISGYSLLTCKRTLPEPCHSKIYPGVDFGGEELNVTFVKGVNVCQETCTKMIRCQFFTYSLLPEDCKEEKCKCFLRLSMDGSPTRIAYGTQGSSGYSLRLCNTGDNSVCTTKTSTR
Summary of the method: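 Citrated human plasma (78% final) with compound, contact-activated by 10 nM human FXIIa in pKal buffer pH 7.5, with 100 μM PFR-AMC. Fluorescence (360/480 nm) followed 5 min at room temperature; rates versus concentration fitted by 4-parameter equation for IC50/IC90.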

Sequence of human activated kallikrein enzyme (P03952 391-638 limits assumed): as the sequence (P03952 391-638 limits assumed) above
Sequence of human activated kallikrein enzyme (P03952 20-390 partner limits assumed): as the sequence (P03952 20-390 partner limits assumed) above

Work on `Cc1ccnc([C@H]2C[C@@H]2C(=O)Nc2cc(OCc3cn4cc(C5CC5)cc(N5CC(=O)N(CC(C)(C)O)C5=O)c4n3)nc(C)n2)n1` [Example 562, (1S,2S)—N-(6-((6-cyclopropyl-8-(3-(2-hydroxy-2-methylpropyl)-2,4-dioxoimidazolidin-1-yl)imidazo[1,2-a]pyridin-2-yl)methoxy)-2-methylpyrimidin-4-yl)-2-(4-methylpyrimidin-2-yl)cyclopropane-1-carboxamide] yielded an EC50 [1] of under 1 nM and an IC90 (plasma kallikrein) of 400 to 1500 nM.
With `COCc1nc(NCc2cn3cc(C4CC4)ccc3n2)cc(NC(=O)[C@@H]2C[C@H]2c2cccc(Cl)c2)n1` (racemic) [Example 108, rac-(1S*,2S*)-2-(3-chlorophenyl)-N-(6-(((6-cyclopropylimidazo[1,2-a]pyridin-2-yl)methyl)amino)-2-(methoxymethyl)pyrimidin-4-yl)cyclopropane-1-carboxamide] the EC50 [1] was 1 to 10 nM and the IC90 (plasma kallikrein) was 10000 to 48000 nM.
Work on `CN1CCN(c2cc(C3CC3)cn3cc(CNc4cc(NC(=O)[C@H]5C[C@@H]5c5cccc(Cl)c5)ncn4)nc23)CC1CO` (stereo partly drawn) [Example I-7, (1S,2S)-2-(3-chlorophenyl)-N-(6-(((6-cyclopropyl-8-(3-(hydroxymethyl)-4-methylpiperazin-1-yl)imidazo[1,2-a]pyridin-2-yl)methyl)amino)pyrimidin-4-yl)cyclopropane-1-carboxamide] yielded an EC50 [1] of 1 to 10 nM and an IC90 (plasma kallikrein) of 400 to 1500 nM.
`Cc1ccnc([C@H]2C[C@@H]2C(=O)Nc2cc(NCc3cn4cc(C5CC5)cc(N5C(=O)N(C)C(=O)C56CC6)c4n3)nc(C)n2)n1` [Example 357, (1S,2S)-N-(6-(((6-cyclopropyl-8-(6-methyl-5,7-dioxo-4,6-diazaspiro[2.4]heptan-4-yl)imidazo[1,2-a]pyridin-2-yl)methyl)amino)-2-methylpyrimidin-4-yl)-2-(4-methylpyrimidin-2-yl)cyclopropane-1-carboxamide] gave an EC50 [1] of under 1 nM and an IC90 (plasma kallikrein) of under 400 nM.
Compound `CN1CC2(C1)CN(c1cc(C3CC3)cn3cc(CNc4ccnc(NC(=O)[C@H]5C[C@@H]5c5cccc(Cl)c5)c4)nc13)C2` [Example 140, (1S,2S)-2-(3-chlorophenyl)-N-(4-(((6-cyclopropyl-8-(6-methyl-2,6-diazaspiro[3.3]heptan-2-yl)imidazo[1,2-a]pyridin-2-yl)methyl)amino)pyridin-2-yl)cyclopropane-1-carboxamide] has an EC50 [1] of under 1 nM and an IC90 (plasma kallikrein) of 400 to 1500 nM.
Work on `CN1CCN(c2cc(C3CC3)cn3cc(CNc4cc(NC(=O)[C@H]5C[C@@H]5c5cccc(Cl)c5)nc(O)n4)nc23)CC1` [Example 285, (1S,2S)-2-(3-chlorophenyl)-N-(6-(((6-cyclopropyl-8-(4-methylpiperazin-1-yl)imidazo[1,2-a]pyridin-2-yl)methyl)amino)-2-hydroxypyrimidin-4-yl)cyclopropane-1-carboxamide] yielded an EC50 [1] of under 1 nM and an IC90 (plasma kallikrein) of under 400 nM.
With `Cc1ccnc([C@H]2C[C@@H]2C(=O)Nc2nccc(NCc3cn4cc(C5CC5)cc(N5CC(=O)N(C)C5=O)c4n3)n2)n1` (racemic) [Example 520, rac-(1S*,2S*)-N-(4-(((6-cyclopropyl-8-(3-methyl-2,4-dioxoimidazolidin-1-yl)imidazo[1,2-a]pyridin-2-yl)methyl)amino)pyrimidin-2-yl)-2-(4-methylpyrimidin-2-yl)cyclopropane-1-carboxamide] the EC50 [1] was under 1 nM and the IC90 (plasma kallikrein) was under 400 nM.
In the case of `CC(O)c1cc(C2CC2)cn2cc(CNc3ccnc(NC(=O)[C@H]4C[C@@H]4c4cccc(Cl)c4)c3)nc12` (stereo partly drawn) [Example I-236, (1S,2S)-2-(3-chlorophenyl)-N-(4-(((6-cyclopropyl-8-(1-hydroxyethyl)imidazo[1,2-a]pyridin-2-yl)methyl)amino)pyridin-2-yl)cyclopropane-1-carboxamide], the EC50 [1] is reported as under 1 nM and the IC90 (plasma kallikrein) is reported as over 48000 nM.
